pKi: −log10 of the molar value.
Columns and labels:
human NK1 receptor = molecular target: T1, human NK1 receptor (Homo sapiens, UniProt P25103); assay: NK1 receptor binding assay, [3H]substance P displacement; conditions: human NK1 receptors in CHO cells, [3H]substance P 0.6 nM
T1 construct: expressed in transfected cells; host or cells: CHO cells (Semliki virus expression system), membrane suspension

[1] = molecular target: T2, Recombinant human NK3 (hNK3) receptor (Homo sapiens, UniProt P29371); assay: NK3 receptor binding assay, [3H]SR142801 displacement; conditions: hNK3 receptor membranes, [3H]SR142801 0.3 nM
T2 construct: expressed in transfected cells; membrane preparations of the recombinant receptor
T2 sequence (P29371 1-465): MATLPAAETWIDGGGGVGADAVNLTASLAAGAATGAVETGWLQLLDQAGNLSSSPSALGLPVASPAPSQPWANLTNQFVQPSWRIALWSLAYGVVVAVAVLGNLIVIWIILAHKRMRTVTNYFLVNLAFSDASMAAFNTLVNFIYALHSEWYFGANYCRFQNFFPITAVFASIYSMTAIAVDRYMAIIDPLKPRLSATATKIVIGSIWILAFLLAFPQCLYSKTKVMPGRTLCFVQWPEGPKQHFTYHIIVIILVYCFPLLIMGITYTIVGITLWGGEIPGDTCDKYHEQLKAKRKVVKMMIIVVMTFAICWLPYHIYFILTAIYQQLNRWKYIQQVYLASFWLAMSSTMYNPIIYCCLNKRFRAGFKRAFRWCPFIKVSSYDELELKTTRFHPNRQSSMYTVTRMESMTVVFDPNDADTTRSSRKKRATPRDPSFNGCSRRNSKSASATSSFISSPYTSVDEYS
Experimental: Recombinant human NK3 (hNK3) receptor affinity was determined in a 96 well plate assay, using [^3H]SR142801 (final concentration 0.3 nM) to radiolabel the hNK3 receptor in the presence of 10 concentrations of competing compound or buffer. Non specific binding was determined using 10 μM SB222200. Assay buffer consisted of Tris-HCl (50 mM, pH 7.4), BSA (0.1%), MnCl2 (4 mM) and phosphoramidon (1 μM). Membrane preparations of hNK3 receptors (approximately 2.5 μg/well in a 96 well plate) were used to initiate the incubation for 90 min at room temperature. This assay was terminated by rapid filtration under vacuum through GF/C filters, presoaked for 90 min with PEI (0.3%), with 3×0.5 ml washes of ice-cold Tris buffer (50 mM, pH 7.4) containing 0.1% BSA. The radioactivity retained on the filters was measured by scintillation counting. All assays were performed in duplicate in at least two separate experiments.

T1 sequence (P25103 whole entry): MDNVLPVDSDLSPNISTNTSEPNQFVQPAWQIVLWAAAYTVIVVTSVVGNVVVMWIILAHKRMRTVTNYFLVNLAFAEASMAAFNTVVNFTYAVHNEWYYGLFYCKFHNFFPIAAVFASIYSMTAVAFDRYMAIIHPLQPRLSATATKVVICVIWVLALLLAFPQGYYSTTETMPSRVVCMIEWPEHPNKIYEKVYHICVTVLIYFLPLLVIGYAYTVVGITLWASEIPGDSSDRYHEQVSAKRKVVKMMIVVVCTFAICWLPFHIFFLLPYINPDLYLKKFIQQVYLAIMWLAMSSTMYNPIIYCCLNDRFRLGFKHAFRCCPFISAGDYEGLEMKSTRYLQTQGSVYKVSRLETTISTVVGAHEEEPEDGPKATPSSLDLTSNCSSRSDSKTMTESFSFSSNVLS

| pKi (human NK1 receptor) | pKi [1] | SMILES |
| --- | --- | --- |
| 8.92 | 7.49 | CCn1ncc2c(-c3ccccc3C)c(N(C)C(=O)C(C)(C)c3cc(C(F)(F)F)cc(C(F)(F)F)c3)cnc21 [Example 1, 2-(3,5-Bis-trifluoromethyl-phenyl)-N-(1-ethyl-4-o-tolyl-1H-pyrazolo[3,4-b]pyridin-5-yl)-N-methyl-isobutyramide] |
| 8.96 | 7.59 | CCn1ncc2c(-c3ccc(F)cc3C)c(N(C)C(=O)C(C)(C)c3cc(C(F)(F)F)cc(C(F)(F)F)c3)cnc21 [Example 2, 2-(3,5-Bis-trifluoromethyl-phenyl)-N-[1-ethyl-4-(4-fluoro-2-methyl-phenyl)-1H-pyrazolo[3,4-b]pyridin-5-yl]-N-methyl-isobutyramide] |
| 9.22 | 7.64 | CCn1ncc2c(-c3ccccc3Cl)c(N(C)C(=O)C(C)(C)c3cc(C(F)(F)F)cc(C(F)(F)F)c3)cnc21 [Example 3, 2-(3,5-Bis-trifluoromethyl-phenyl)-N-[4-(2-chloro-phenyl)-1-ethyl-1H-pyrazolo[3,4-b]pyridin-5-yl]-N-methyl-isobutyramide] |
| 9.40 | 7.06 | CCn1ncc2c(-c3ccc(Cl)c(Cl)c3)c(N(C)C(=O)C(C)(C)c3cc(C(F)(F)F)cc(C(F)(F)F)c3)cnc21 [Example 4, 2-(3,5-Bis-trifluoromethyl-phenyl)-N-[4-(3,4-dichloro-phenyl)-1-ethyl-1H-pyrazolo[3,4-b]pyridin-5-yl]-N-methyl-isobutyramide] |
| 8.22 | 6.70 | CCn1ncc2c(-c3ccc(F)cc3C)c(NC(=O)C(C)(C)c3cc(C(F)(F)F)cc(C(F)(F)F)c3)cnc21 [Example 5, 2-(3,5-Bis-trifluoromethyl-phenyl)-N-[1-ethyl-4-(4-fluoro-2-methyl-phenyl)-1H-pyrazolo[3,4-b]pyridin-5-yl]-isobutyramide] |
| 9.05 | 8.17 | Cc1cc(F)ccc1-c1c(N(C)C(=O)C(C)(C)c2cc(C(F)(F)F)cc(C(F)(F)F)c2)cnc2c1cnn2CC(F)F [Example 6, 2-(3,5-Bis-trifluoromethyl-phenyl)-N-[1-(2,2-difluoro-ethyl)-4-(4-fluoro-2-methyl-phenyl)-1H-pyrazolo[3,4-b]pyridin-5-yl]-N-methyl-isobutyramide] |
| 9.10 | 7.72 | Cc1cc(F)ccc1-c1c(N(C)C(=O)C(C)(C)c2cc(C(F)(F)F)cc(C(F)(F)F)c2)cnc2c1cnn2C [Example 7, 2-(3,5-Bis-trifluoromethyl-phenyl)-N-[4-(4-fluoro-2-methyl-phenyl)-1-methyl-1H-pyrazolo[3,4-b]pyridin-5-yl]-N-methyl-isobutyramide] |
| 8.77 | 6.32 | CCn1ncc2c(-c3ccc(F)cc3F)c(N(C)C(=O)C(C)(C)c3cc(C(F)(F)F)cc(C(F)(F)F)c3)cnc21 [Example 8, 2-(3,5-Bis-trifluoromethyl-phenyl)-N-[4-(2,4-difluoro-phenyl)-1-ethyl-1H-pyrazolo[3,4-b]pyridin-5-yl]-N-methyl-isobutyramide] |
| 7.99 | 6.11 | CCn1ncc2c(-c3cccc(F)c3F)c(N(C)C(=O)C(C)(C)c3cc(C(F)(F)F)cc(C(F)(F)F)c3)cnc21 [Example 9, 22-(3,5-Bis-trifluoromethyl-phenyl)-N-[4-(2,3-difluoro-phenyl)-1-ethyl-1H-pyrazolo[3,4-b]pyridin-5-yl]-N-methyl-isobutyramide] |
| 8.60 | 6.27 | CCn1ncc2c(-c3ccccc3)c(N(C)C(=O)C(C)(C)c3cc(C(F)(F)F)cc(C(F)(F)F)c3)cnc21 [Example 10, 2-(3,5-Bis-trifluoromethyl-phenyl)-N-(1-ethyl-4-phenyl-1H-pyrazolo[3,4-b]pyridin-5-yl)-N-methyl-isobutyramide] |
| 8.89 | 7.11 | Cc1cc(F)ccc1-c1c(N(C)C(=O)C(C)(C)c2cc(C(F)(F)F)cc(C(F)(F)F)c2)cnc2c1cnn2Cc1ccccc1 [Example 11, N-[1-Benzyl-4-(4-fluoro-2-methyl-phenyl)-1H-pyrazolo[3,4-b]pyridin-5-yl]-2-(3,5-bis-trifluoromethyl-phenyl)-N-methyl-isobutyramide] |
| 9.15 | 7.38 | CCn1ncc2c(-c3ccc(F)cc3OC)c(N(C)C(=O)C(C)(C)c3cc(C(F)(F)F)cc(C(F)(F)F)c3)cnc21 [Example 12, 2-(3,5-Bis-trifluoromethyl-phenyl)-N-[1-ethyl-4-(4-fluoro-2-methoxy-phenyl)-1H-pyrazolo[3,4-b]pyridin-5-yl]-N-methyl-isobutyramide] |
| 8.10 | 6.80 | CCn1ncc2c(-c3cc(F)ccc3C)c(N(C)C(=O)C(C)(C)c3cc(C(F)(F)F)cc(C(F)(F)F)c3)cnc21 [Example 13, 2-(3,5-Bis-trifluoromethyl-phenyl)-N-[1-ethyl-4-(5-fluoro-2-methyl-phenyl)-1H-pyrazolo[3,4-b]pyridin-5-yl]-N-methyl-isobutyramide] |
| 8.80 | 7.41 | CCn1ncc2c(-c3cccc(F)c3Cl)c(N(C)C(=O)C(C)(C)c3cc(C(F)(F)F)cc(C(F)(F)F)c3)cnc21 [Example 14, 2-(3,5-Bis-trifluoromethyl-phenyl)-N-[4-(2-chloro-3-fluoro-phenyl)-1-ethyl-1H-pyrazolo[3,4-b]pyridin-5-yl]-N-methyl-isobutyramide] |
| 9.15 | 6.68 | CCn1ncc2c(-c3ccccc3OC)c(N(C)C(=O)C(C)(C)c3cc(C(F)(F)F)cc(C(F)(F)F)c3)cnc21 [Example 15, 2-(3,5-Bis-trifluoromethyl-phenyl)-N-[1-ethyl-4-(2-methoxy-phenyl)-1H-pyrazolo[3,4-b]pyridin-5-yl]-N-methyl-isobutyramide] |
|  | 7.34 | CCn1ncc2c(-c3cccc(Cl)c3Cl)c(N(C)C(=O)C(C)(C)c3cc(C(F)(F)F)cc(C(F)(F)F)c3)cnc21 [Example 18, 2-(3,5-Bis-trifluoromethyl-phenyl)-N-[4-(2,3-dichloro-phenyl)-1-ethyl-1H-pyrazolo[3,4-b]pyridin-5-yl]-N-methyl-isobutyramide] |
| 6.28 |  | CCn1ncc2c(-c3cccnc3C)c(N(C)C(=O)C(C)(C)c3cc(C(F)(F)F)cc(C(F)(F)F)c3)cnc21 [Example 25, 2-(3,5-Bis-trifluoromethyl-phenyl)-N-[1-ethyl-4-(2-methyl-pyridin-3-yl)-1H-pyrazolo[3,4-b]pyridin-5-yl]-N-methyl-isobutyramide] |
|  | 7.40 | Cc1cc(F)ccc1-c1c(N(C)C(=O)C(C)(C)c2cc(C(F)(F)F)cc(C(F)(F)F)c2)cnc2c1cnn2CC(=O)N1CCCC1 [Example 34, 2-(3,5-Bis-trifluoromethyl-phenyl)-N-[4-(4-fluoro-2-methyl-phenyl)-1-(2-oxo-2-pyrrolidin-1-yl-ethyl)-1H-pyrazolo[3,4-b]pyridin-5-yl]-N-methyl-isobutyramide] |
|  | 7.03 | Cc1cc(F)ccc1-c1c(N(C)C(=O)C(C)(C)c2cc(C(F)(F)F)cc(C(F)(F)F)c2)cnc2c1cnn2CC(=O)N(C)C [Example 35, 2-(3,5-Bis-trifluoromethyl-phenyl)-N-[1-dimethylcarbamoylmethyl-4-(4-fluoro-2-methyl-phenyl)-1H-pyrazolo[3,4-b]pyridin-5-yl]-N-methyl-isobutyramide] |
